Laboratory results taken from ChEMBL document CHEMBL1201862, “PubChem BioAssay data set” (2004).
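Interpolation was linear, between the two tested concentrations surrounding the appropriate level; five concentrations were tested over 48 hours in 96-well plates. GI50: concentration for 50% inhibition of growth.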 Activity calls are given as the source filed them. No stated cut-off is given here; in the data, active = GI50 up to about 1.1 µM and inactive = higher. Where a SMILES comes first, the peptide text is derived from it. [ ]: non-standard residue; d: D form. The star is where a group is joined. Cbz = O=C(OCc1ccccc1)*; Aib = CC(C)(N)C(=O)O; OBn = c1ccc(CO*)cc1

How the values were obtained:
Experiment in all cases: growth of human tumour cells (NCI), 48 h
OVCAR-4 = test system: OVCAR-4
T47D = test system: T47D
SK-MEL-5 = test system: SK-MEL-5
LOX IMVI = test system: LOX IMVI
UACC-257 = test system: UACC-257
HCT-116 = test system: HCT-116
TK-10 = test system: TK-10
HOP-62 = test system: HOP-62
COLO 205 = test system: COLO 205
UO-31 = test system: UO-31
RPMI-8226 = test system: RPMI-8226
A498 = test system: A498
OVCAR-3 = test system: OVCAR-3
CAKI-1 = test system: CAKI-1
SNB-19 = test system: SNB-19
SK-OV-3 = test system: SK-OV-3
NCI-H460 = test system: NCI-H460
HL-60 = test system: HL-60
NCI-H522 = test system: NCI-H522

Measured: GI50

CCOC(=O)c1sc2nc(SC)nc3c2c1NCN3C1CC1
inactive: OVCAR-4 > 100 µM | T47D 48.6 µM | SK-MEL-5 > 100 µM | LOX IMVI > 100 µM | UACC-257 > 100 µM | HCT-116 > 100 µM | TK-10 > 100 µM | HOP-62 > 100 µM | COLO 205 > 100 µM | UO-31 > 100 µM | RPMI-8226 > 100 µM | A498 > 100 µM | OVCAR-3 > 100 µM | CAKI-1 > 100 µM | SNB-19 > 100 µM | SK-OV-3 > 100 µM | NCI-H460 > 100 µM

O=C(NCCC(F)(F)C(F)(F)C(F)(F)C(F)(F)F)NC1OC(CO)C(O)C(O)C1O (stereo not drawn)
inactive: OVCAR-4 > 100 µM | T47D > 100 µM | SK-MEL-5 > 100 µM | LOX IMVI > 100 µM | UACC-257 > 100 µM | HCT-116 > 100 µM | TK-10 > 100 µM | HOP-62 > 100 µM | HL-60 > 100 µM | COLO 205 > 100 µM | UO-31 > 100 µM | RPMI-8226 > 100 µM | OVCAR-3 > 100 µM | CAKI-1 > 100 µM | SNB-19 > 100 µM | SK-OV-3 > 100 µM | NCI-H460 > 100 µM

CCC(O)(Cc1ccc(OC)cc1)c1ccc(OC)cc1 (stereo not drawn)
inactive: NCI-H522 > 100 µM | OVCAR-4 84.7 µM | SK-MEL-5 > 100 µM | LOX IMVI > 100 µM | UACC-257 > 100 µM | HCT-116 > 100 µM | TK-10 > 100 µM | HOP-62 > 100 µM | HL-60 > 100 µM | COLO 205 > 100 µM | UO-31 > 100 µM | RPMI-8226 > 100 µM | A498 > 100 µM | OVCAR-3 > 100 µM | CAKI-1 > 100 µM | SNB-19 > 100 µM | SK-OV-3 > 100 µM | NCI-H460 > 100 µM

c1cncc(C(Nc2cccc3cccnc23)Nc2cccc3cccnc23)c1
inactive: NCI-H522 28.8 µM | T47D > 100 µM | SK-MEL-5 > 100 µM | LOX IMVI > 100 µM | UACC-257 > 100 µM | HCT-116 > 100 µM | TK-10 > 100 µM | HOP-62 > 100 µM | HL-60 36.3 µM | COLO 205 > 100 µM | UO-31 83.8 µM | RPMI-8226 55.8 µM | OVCAR-3 > 100 µM | CAKI-1 53 µM | SNB-19 > 100 µM | SK-OV-3 > 100 µM | NCI-H460 > 100 µM

CCN(CC)C(=O)COc1cc2c(O)c3c(O)c(C)c4c(c13)C(=O)C(C)(OC=CC(OC)C(C)C(OC(C)=O)C(C)C(O)C(C)C(O)C(C)C=CC=C(C)C(=O)N2)O4 (stereo not drawn)
inactive: OVCAR-4 > 100 µM | T47D > 100 µM | SK-MEL-5 > 100 µM | LOX IMVI > 100 µM | UACC-257 > 100 µM | HCT-116 > 100 µM | TK-10 > 100 µM | HOP-62 > 100 µM | UO-31 > 100 µM | RPMI-8226 37.4 µM | A498 > 100 µM | OVCAR-3 > 100 µM | CAKI-1 > 100 µM | SNB-19 > 100 µM | SK-OV-3 > 100 µM | NCI-H460 > 100 µM

N#C/C(=C\c1cc(Br)c(O)c(Br)c1)c1cccnc1
inactive: NCI-H522 30.6 µM | OVCAR-4 33.3 µM | SK-MEL-5 > 10 µM | UACC-257 23.6 µM | HCT-116 > 100 µM | TK-10 27.4 µM | HOP-62 32.8 µM | HL-60 27 µM | COLO 205 22.8 µM | UO-31 22.1 µM | RPMI-8226 21.6 µM | OVCAR-3 21 µM | CAKI-1 35.7 µM | SNB-19 39.1 µM | SK-OV-3 42.2 µM | NCI-H460 32.5 µM

CC(C)(C)OC(=O)NC(Cc1ccc(OCc2ccccc2)cn1)C(=O)O (stereo not drawn)
inactive: NCI-H522 67 µM | OVCAR-4 > 100 µM | SK-MEL-5 > 100 µM | LOX IMVI > 100 µM | UACC-257 > 100 µM | HCT-116 > 100 µM | TK-10 > 100 µM | HOP-62 > 100 µM | HL-60 > 100 µM | COLO 205 > 100 µM | UO-31 > 100 µM | RPMI-8226 > 100 µM | A498 > 100 µM | OVCAR-3 > 100 µM | CAKI-1 > 100 µM | SNB-19 > 100 µM | NCI-H460 > 100 µM

O=C(O)C1CCCCC1C(=O)Nn1cnnc1 (stereo not drawn)
inactive: NCI-H522 > 100 µM | OVCAR-4 > 100 µM | SK-MEL-5 > 100 µM | LOX IMVI > 100 µM | UACC-257 > 100 µM | HCT-116 > 100 µM | TK-10 > 100 µM | HOP-62 > 100 µM | COLO 205 > 100 µM | UO-31 > 100 µM | RPMI-8226 > 100 µM | OVCAR-3 > 100 µM | SNB-19 > 100 µM | SK-OV-3 > 100 µM

c1ccc2c(c1)c1c(n2CCOCCN2CCCCC2)CCCC1
inactive: OVCAR-4 11.1 µM | T47D 13.4 µM | SK-MEL-5 8.43 µM | LOX IMVI 13.3 µM | UACC-257 > 10 µM | HCT-116 12.5 µM | TK-10 14.3 µM | HOP-62 15.1 µM | HL-60 2.37 µM | COLO 205 11.1 µM | UO-31 11.1 µM | RPMI-8226 9.29 µM | OVCAR-3 9.75 µM | SK-OV-3 18.7 µM | NCI-H460 11.9 µM

N=C(N)NS(=O)(=O)c1ccc(NC(=O)c2ccc3nc4ccccc4c(N)c3c2)cc1
inactive: NCI-H522 > 100 µM | OVCAR-4 > 100 µM | T47D > 100 µM | SK-MEL-5 > 100 µM | LOX IMVI > 100 µM | UACC-257 > 100 µM | HCT-116 > 100 µM | TK-10 > 100 µM | HOP-62 > 100 µM | HL-60 > 100 µM | COLO 205 > 100 µM | UO-31 > 100 µM | RPMI-8226 > 100 µM | OVCAR-3 > 100 µM | CAKI-1 > 100 µM | SNB-19 > 100 µM | SK-OV-3 > 100 µM | NCI-H460 > 100 µM

CC(NC(=O)C(C)(C)NC(=O)C(CC(=O)OCc1ccccc1)NC(=O)OCc1ccccc1)C(N)=O (stereo not drawn) (Cbz-Asp(OBn)-[Aib]-Ala-NH2; configuration not given here)
inactive: NCI-H522 > 100 µM | OVCAR-4 > 100 µM | T47D > 100 µM | SK-MEL-5 > 100 µM | LOX IMVI > 100 µM | UACC-257 > 100 µM | HCT-116 > 100 µM | TK-10 > 100 µM | HOP-62 > 100 µM | HL-60 > 100 µM | COLO 205 > 100 µM | UO-31 > 100 µM | RPMI-8226 > 100 µM | OVCAR-3 > 100 µM | CAKI-1 > 100 µM | SNB-19 > 100 µM | SK-OV-3 > 100 µM | NCI-H460 > 100 µM

CN(C(=O)c1cc2c(s1)sc1c(=O)n(C)c3ccccc3c12)c1ccccc1
inactive: NCI-H522 4.41 µM | OVCAR-4 42.7 µM | T47D 28.8 µM | SK-MEL-5 3.56 µM | LOX IMVI 18.5 µM | UACC-257 29.4 µM | HCT-116 4.93 µM | TK-10 24.7 µM | COLO 205 > 100 µM | UO-31 6.7 µM | OVCAR-3 7.83 µM | CAKI-1 7.41 µM | SNB-19 31.3 µM | SK-OV-3 22.2 µM | NCI-H460 2.43 µM
